Source: PMC5218480 (PLoS ONE, 2017)

System: MV-4-11 cells
Assay: Gene expression microarray analysis (Affymetrix PrimeView) and GSEA
Type: cell-based, human
Parameters: RFU PODN (11730768_x_at) / Fold change /veh PODN (11730768_x_at) / RFU LINC00158 (11744669_a_at) / Fold change /veh LINC00158 (11744669_a_at) / RFU DUSP10 (11751237_a_at) / Fold change /veh DUSP10 (11751237_a_at) / RFU ID3 (11757404_x_at) / Fold change /veh ID3 (11757404_x_at) / RFU PLEKHG5 (11737974_s_at) / Fold change /veh PLEKHG5 (11737974_s_at) / RFU LRRC4B (11730491_at) / Fold change /veh LRRC4B (11730491_at) / RFU GIMAP4 (11747438_a_at) / Fold change /veh GIMAP4 (11747438_a_at) / RFU KRT8 (11758183_x_at) / Fold change /veh KRT8 (11758183_x_at) / RFU CNN1 (11734310_a_at) / Fold change /veh CNN1 (11734310_a_at) / RFU VPS37D (11726825_at) / Fold change /veh VPS37D (11726825_at) / RFU C10orf10 (11716522_x_at) / Fold change /veh C10orf10 (11716522_x_at) / RFU KIR2DL2 /// KIR2DL4 /// KIR2DL5A /// KIR2DL5B /// KIR2DS1 /// KIR2DS2 /// KIR2DS3 /// KIR2DS4 /// KIR3DL3 /// KIR3DL3 /// KIR3DS1 (11738374_at) / Fold change /veh KIR2DL2 /// KIR2DL4 /// KIR2DL5A /// KIR2DL5B /// KIR2DS1 /// KIR2DS2 /// KIR2DS3 /// KIR2DS4 /// KIR3DL3 /// KIR3DL3 /// KIR3DS1 (11738374_at) / RFU C1QL1 (11718748_at) / Fold change /veh C1QL1 (11718748_at) / RFU TMPRSS4 (11747572_a_at) / Fold change /veh TMPRSS4 (11747572_a_at) / RFU HAMP (11756126_x_at) / Fold change /veh HAMP (11756126_x_at) / RFU RNFT2 (11725882_a_at) / Fold change /veh RNFT2 (11725882_a_at) / RFU NR4A2 (11747474_a_at) / Fold change /veh NR4A2 (11747474_a_at) / RFU ABCC12 (11746883_a_at) / Fold change /veh ABCC12 (11746883_a_at) / RFU TMEM136 (11760407_x_at) / Fold change /veh TMEM136 (11760407_x_at) / RFU CLDN22 /// WWC2 (11732394_at) / Fold change /veh CLDN22 /// WWC2 (11732394_at) / RFU HLA-DPB1 (11760878_x_at) / Fold change /veh HLA-DPB1 (11760878_x_at) / RFU SPINT1 (11716480_a_at) / Fold change /veh SPINT1 (11716480_a_at) / RFU GAP43 (11754022_s_at) / Fold change /veh GAP43 (11754022_s_at) / RFU A4GNT (11735810_at) / Fold change /veh A4GNT (11735810_at) / RFU PRB3 (11715151_x_at) / Fold change /veh PRB3 (11715151_x_at) / RFU TUBB4B (11761932_at) / Fold change /veh TUBB4B (11761932_at) / RFU CAPN14 (11732068_a_at) / Fold change /veh CAPN14 (11732068_a_at) / RFU TMCC2 (11721928_a_at) / Fold change /veh TMCC2 (11721928_a_at) / RFU IRGQ (11745062_a_at) / Fold change /veh IRGQ (11745062_a_at) / RFU FAM174B (11720279_a_at) / Fold change /veh FAM174B (11720279_a_at) / RFU TMPRSS4 (11748680_a_at) / Fold change /veh TMPRSS4 (11748680_a_at) / RFU FAM212B (11763350_a_at) / Fold change /veh FAM212B (11763350_a_at) / RFU PLEKHG5 (11743358_a_at) / Fold change /veh PLEKHG5 (11743358_a_at) / RFU ZSCAN30 (11745921_a_at) / Fold change /veh ZSCAN30 (11745921_a_at) / RFU CMKLR1 (11741424_a_at) / Fold change /veh CMKLR1 (11741424_a_at) / RFU LOC101060620 /// MAPK8IP1 (11723275_at) / Fold change /veh LOC101060620 /// MAPK8IP1 (11723275_at) / RFU SPTSSB (11747773_x_at) / Fold change /veh SPTSSB (11747773_x_at) / RFU PRSS12 (11739890_at) / Fold change /veh PRSS12 (11739890_at) / RFU BIN1 (11741810_x_at) / Fold change /veh BIN1 (11741810_x_at) / RFU WNT11 (11732464_a_at) / Fold change /veh WNT11 (11732464_a_at) / RFU C10orf10 (11716521_a_at) / Fold change /veh C10orf10 (11716521_a_at) / RFU C5orf56 (11738089_at) / Fold change /veh C5orf56 (11738089_at) / RFU CYB561 (11721691_x_at) / Fold change /veh CYB561 (11721691_x_at) / RFU ANKRD19P (11752326_a_at) / Fold change /veh ANKRD19P (11752326_a_at) / RFU OR2T12 /// OR2T33 /// OR2T8 (11738714_s_at) / Fold change /veh OR2T12 /// OR2T33 /// OR2T8 (11738714_s_at) / RFU VCAN (11748164_a_at) / Fold change /veh VCAN (11748164_a_at) / RFU JSRP1 (11732532_at) / Fold change /veh JSRP1 (11732532_at) / RFU KRTAP10-11 (11738290_x_at) / Fold change /veh KRTAP10-11 (11738290_x_at) / RFU MYO3A (11730013_a_at) / Fold change /veh MYO3A (11730013_a_at) / RFU EBF3 (11725865_a_at) / Fold change /veh EBF3 (11725865_a_at) / RFU CAMK2N1 (11719241_x_at) / Fold change /veh CAMK2N1 (11719241_x_at) / RFU C5orf56 (11738088_a_at) / Fold change /veh C5orf56 (11738088_a_at) / RFU OLFML3 (11715873_a_at) / Fold change /veh OLFML3 (11715873_a_at) / RFU LOC100653217 /// NTM (11731650_a_at) / Fold change /veh LOC100653217 /// NTM (11731650_a_at) / RFU MAPK11 (11762145_a_at) / Fold change /veh MAPK11 (11762145_a_at) / RFU FIZ1 (11724087_x_at) / Fold change /veh FIZ1 (11724087_x_at) / RFU OASL (11726364_x_at) / Fold change /veh OASL (11726364_x_at) / RFU SOX15 (11748057_x_at) / Fold change /veh SOX15 (11748057_x_at) / RFU CD79A (11719716_a_at) / Fold change /veh CD79A (11719716_a_at) / RFU HIST1H1D (11736915_at) / Fold change /veh HIST1H1D (11736915_at) / RFU CASKIN2 (11723855_a_at) / Fold change /veh CASKIN2 (11723855_a_at) / RFU LOC730098 (11760151_x_at) / Fold change /veh LOC730098 (11760151_x_at) / RFU OR4N2 (11742367_at) / Fold change /veh OR4N2 (11742367_at) / RFU PRRT2 (11749266_a_at) / Fold change /veh PRRT2 (11749266_a_at) / RFU SNX32 (11753110_a_at) / Fold change /veh SNX32 (11753110_a_at) / RFU CDHR5 (11726645_a_at) / Fold change /veh CDHR5 (11726645_a_at) / RFU RCAN1 (11760418_a_at) / Fold change /veh RCAN1 (11760418_a_at) / RFU FAM167A (11723789_a_at) / Fold change /veh FAM167A (11723789_a_at) / RFU FAM26E (11764081_at) / Fold change /veh FAM26E (11764081_at) / RFU ISYNA1 (11749810_s_at) / Fold change /veh ISYNA1 (11749810_s_at) / RFU ACY1 (11761880_at) / Fold change /veh ACY1 (11761880_at) / RFU 11764098_at / Fold change /veh 11764098_at / RFU SAMD14 (11745864_x_at) / Fold change /veh SAMD14 (11745864_x_at) / RFU NPB (11741838_a_at) / Fold change /veh NPB (11741838_a_at) / RFU TMPRSS6 (11731388_a_at) / Fold change /veh TMPRSS6 (11731388_a_at) / RFU KRTAP10-2 (11738614_at) / Fold change /veh KRTAP10-2 (11738614_at) / RFU ARHGAP8 /// PRR5-ARHGAP8 (11727945_x_at) / Fold change /veh ARHGAP8 /// PRR5-ARHGAP8 (11727945_x_at) / RFU KRTAP5-7 /// NADSYN1 (11734609_at) / Fold change /veh KRTAP5-7 /// NADSYN1 (11734609_at) / RFU RASL12 (11751679_a_at) / Fold change /veh RASL12 (11751679_a_at) / RFU CDKN2B (11736163_a_at) / Fold change /veh CDKN2B (11736163_a_at) / RFU PRF1 (11729649_at) / Fold change /veh PRF1 (11729649_at) / RFU, ZNF638 /// ZNF638-IT1 / Fold change vs veh, ZNF638 /// ZNF638-IT1 / RFU, PANK3 / Fold change vs veh, PANK3 / RFU, SH3YL1 / Fold change vs veh, SH3YL1 / RFU, ZEB2 / Fold change vs veh, ZEB2 / RFU, NRIP1 / Fold change vs veh, NRIP1 / RFU, PTTG1IP / Fold change vs veh, PTTG1IP / RFU, CAPN2 / Fold change vs veh, CAPN2 / RFU, MED14 / Fold change vs veh, MED14 / RFU, SNORA58 / Fold change vs veh, SNORA58 / RFU, C1orf63 / Fold change vs veh, C1orf63 / RFU, LRRFIP1 / Fold change vs veh, LRRFIP1 / RFU, NDUFAF7 / Fold change vs veh, NDUFAF7 / RFU, SLC12A2 / Fold change vs veh, SLC12A2 / RFU, IBTK / Fold change vs veh, IBTK / RFU, ESF1 / Fold change vs veh, ESF1 / Fold change vs veh, TMEM50B / RFU, TAOK1 / Fold change vs veh, TAOK1 / RFU, ACBD3 / Fold change vs veh, ACBD3 / RFU, TMA16 / Fold change vs veh, TMA16 / RFU, RWDD3 / Fold change vs veh, RWDD3 / RFU, BCAT1 / Fold change vs veh, BCAT1 / RFU, EDEM3 / Fold change vs veh, EDEM3 / RFU, TMEM33 / Fold change vs veh, TMEM33 / RFU, WDR75 / Fold change vs veh, WDR75 / RFU, AHCTF1 / Fold change vs veh, AHCTF1 / RFU, TFRC / Fold change vs veh, TFRC / RFU, ZDHHC17 / Fold change vs veh, ZDHHC17 / RFU, NOM1 / Fold change vs veh, NOM1 / RFU, ARL8B / Fold change vs veh, ARL8B / RFU, ZBTB11 / Fold change vs veh, ZBTB11 / RFU, TAMM41 / Fold change vs veh, TAMM41 / RFU, KIAA1704 /// LOC100996395 / Fold change vs veh, KIAA1704 /// LOC100996395 / RFU, ING1 / Fold change vs veh, ING1 / RFU, TRMT61B / Fold change vs veh, TRMT61B / RFU, FUBP3 / Fold change vs veh, FUBP3 / RFU, TP53 / Fold change vs veh, TP53 / RFU, TNKS2 / Fold change vs veh, TNKS2 / RFU, ZFP14 / Fold change vs veh, ZFP14 / RFU, ACTR2 / Fold change vs veh, ACTR2 / RFU, PPP3R1 / Fold change vs veh, PPP3R1 / RFU, PIK3R1 / Fold change vs veh, PIK3R1 / RFU, HNRNPA1 / Fold change vs veh, HNRNPA1 / RFU, RNF170 / Fold change vs veh, RNF170 / RFU, ZNF28 / Fold change vs veh, ZNF28 / RFU, RNGTT / Fold change vs veh, RNGTT / RFU, OGT / Fold change vs veh, OGT / RFU, BRD1 / Fold change vs veh, BRD1 / RFU, MARS / Fold change vs veh, MARS / RFU, ZNF655 / Fold change vs veh, ZNF655 / RFU, FAHD1 / Fold change vs veh, FAHD1 / RFU, BDP1 / Fold change vs veh, BDP1 / RFU, LRRCC1 / Fold change vs veh, LRRCC1 / RFU, ARID1A / Fold change vs veh, ARID1A / RFU, ZNF146 / Fold change vs veh, ZNF146 / RFU, ZNF330 / Fold change vs veh, ZNF330 / RFU, GPN3 / Fold change vs veh, GPN3 / RFU, C9orf123 / Fold change vs veh, C9orf123 / RFU, N4BP2L2 / Fold change vs veh, N4BP2L2 / RFU, ARFIP1 / Fold change vs veh, ARFIP1 / RFU, FAM179B / Fold change vs veh, FAM179B / RFU, BCL10 / Fold change vs veh, BCL10 / RFU, UHRF1BP1L / Fold change vs veh, UHRF1BP1L / RFU, BET1 / Fold change vs veh, BET1 / RFU, CNOT2 / Fold change vs veh, CNOT2 / RFU, ZNF268 / Fold change vs veh, ZNF268 / Fold change vs veh, ZNF507 / RFU, DGCR2 / Fold change vs veh, DGCR2 / RFU, WDSUB1 / Fold change vs veh, WDSUB1 / Fold change vs veh, HSP90B1 /// MIR3652 / RFU, ADSS / Fold change vs veh, ADSS / RFU, GK / Fold change vs veh, GK / RFU, ZNF148 / Fold change vs veh, ZNF148 / RFU, TAF9 / Fold change vs veh, TAF9 / RFU, SLC1A5 / Fold change vs veh, SLC1A5 / RFU, SLMO2 / Fold change vs veh, SLMO2 / RFU, ABCC4 / Fold change vs veh, ABCC4 / RFU, LOC101060439 /// RAP1B / Fold change vs veh, LOC101060439 /// RAP1B / RFU, RFX7 / Fold change vs veh, RFX7 / RFU, GTPBP10 / Fold change vs veh, GTPBP10 / RFU, CNEP1R1 / Fold change vs veh, CNEP1R1 / RFU, BIVM-ERCC5 /// ERCC5 / Fold change vs veh, BIVM-ERCC5 /// ERCC5 / RFU, ILF3 / Fold change vs veh, ILF3 / RFU 11762660_at / Fold change /veh 11762660_at / RFU VCAN (11757783_s_at) / Fold change /veh VCAN (11757783_s_at) / RFU DDX43 (11728927_at) / Fold change /veh DDX43 (11728927_at) / RFU KRT8 (11758188_x_at) / Fold change /veh KRT8 (11758188_x_at) / RFU NKD1 (11759106_at) / Fold change /veh NKD1 (11759106_at) / RFU SRD5A1 (11742802_a_at) / Fold change /veh SRD5A1 (11742802_a_at) / RFU TPSAB1 /// TPSB2 (11721975_s_at) / Fold change /veh TPSAB1 /// TPSB2 (11721975_s_at) / RFU GSTM3 (11746129_a_at) / Fold change /veh GSTM3 (11746129_a_at) / RFU IL23R (11737362_x_at) / Fold change /veh IL23R (11737362_x_at) / RFU TMEM51 (11727254_a_at) / Fold change /veh TMEM51 (11727254_a_at) / RFU PIWIL2 (11732686_x_at) / Fold change /veh PIWIL2 (11732686_x_at) / RFU ORM1 (11744905_x_at) / Fold change /veh ORM1 (11744905_x_at) / RFU CCDC152 (11743942_at) / Fold change /veh CCDC152 (11743942_at) / RFU ECM1 (11717891_a_at) / Fold change /veh ECM1 (11717891_a_at) / RFU IL23R (11748794_a_at) / Fold change /veh IL23R (11748794_a_at) / RFU TNFAIP8L3 (11732012_x_at) / Fold change /veh TNFAIP8L3 (11732012_x_at) / RFU MBOAT4 (11741988_at) / Fold change /veh MBOAT4 (11741988_at) / RFU 11764193_at / Fold change /veh 11764193_at / RFU TMEM53 (11763286_at) / Fold change /veh TMEM53 (11763286_at) / RFU MAGEB2 (11727129_at) / Fold change /veh MAGEB2 (11727129_at) / RFU TMEM200A (11744735_a_at) / Fold change /veh TMEM200A (11744735_a_at) / RFU CCDC152 (11751479_a_at) / Fold change /veh CCDC152 (11751479_a_at) / RFU FAM211A (11726209_a_at) / Fold change /veh FAM211A (11726209_a_at) / RFU RGS16 (11746705_a_at) / Fold change /veh RGS16 (11746705_a_at) / RFU VCAN (11755009_s_at) / Fold change /veh VCAN (11755009_s_at) / RFU RHOB (11743442_s_at) / Fold change /veh RHOB (11743442_s_at) / RFU RGS16 (11720943_a_at) / Fold change /veh RGS16 (11720943_a_at) / RFU RGS16 (11720944_at) / Fold change /veh RGS16 (11720944_at) / RFU, VPS4B / Fold change vs veh, VPS4B / RFU, CREB1 / Fold change vs veh, CREB1 / RFU, DNAJC13 / Fold change vs veh, DNAJC13 / RFU, GNAQ / Fold change vs veh, GNAQ / RFU, CDK5R1 / Fold change vs veh, CDK5R1 / RFU, ZRANB3 / Fold change vs veh, ZRANB3 / RFU, CUL4A / Fold change vs veh, CUL4A / RFU, CCNY / Fold change vs veh, CCNY / RFU, UFL1 / Fold change vs veh, UFL1 / RFU, COG3 / Fold change vs veh, COG3 / RFU, DIAPH2 / Fold change vs veh, DIAPH2 / RFU, SKA2 / Fold change vs veh, SKA2 / RFU, AFF3 / Fold change vs veh, AFF3 / RFU, LMF1 / Fold change vs veh, LMF1 / RFU, IPO11 / Fold change vs veh, IPO11 / RFU, DFFB / Fold change vs veh, DFFB / RFU, FOXP1 / Fold change vs veh, FOXP1 / RFU, CARD8 / Fold change vs veh, CARD8 / RFU, STRN3 / Fold change vs veh, STRN3 / RFU, ADK / Fold change vs veh, ADK / RFU, RASSF2 / Fold change vs veh, RASSF2 / RFU, WIPF1 / Fold change vs veh, WIPF1 / RFU, LARP1B / Fold change vs veh, LARP1B / RFU, RASA1 / Fold change vs veh, RASA1 / RFU, RB1 / Fold change vs veh, RB1 / RFU, PPFIA1 / Fold change vs veh, PPFIA1 / RFU, MAT2A / Fold change vs veh, MAT2A / RFU, CCT5 / Fold change vs veh, CCT5 / RFU, WDR92 / Fold change vs veh, WDR92 / RFU, CUX1 / Fold change vs veh, CUX1 / RFU, TTC7A / Fold change vs veh, TTC7A / RFU, TMEM135 / Fold change vs veh, TMEM135 / RFU, DEPTOR / Fold change vs veh, DEPTOR / RFU, CPM / Fold change vs veh, CPM / RFU, DNAJB6 / Fold change vs veh, DNAJB6 / RFU, CACNA2D3 / Fold change vs veh, CACNA2D3 / RFU, DTX4 / Fold change vs veh, DTX4 / RFU, TFCP2 / Fold change vs veh, TFCP2 / RFU, GMCL1 /// GMCL1P1 / Fold change vs veh, GMCL1 /// GMCL1P1 / RFU, AEBP2 / Fold change vs veh, AEBP2 / RFU, SNHG1 /// SNORD22 /// SNORD25 /// SNORD26 /// SNORD27 /// SNORD28 /// SNORD29 /// SNORD31 / Fold change vs veh, SNHG1 /// SNORD22 /// SNORD25 /// SNORD26 /// SNORD27 /// SNORD28 /// SNORD29 /// SNORD31 / Fold change (Aza/veh), C12orf56 (ProbeSet 11735607_a_at) / Fold change (ACY-1035/veh), C12orf56 (ProbeSet 11735607_a_at) / Fold change (Aza/veh), FGFR1OP (ProbeSet 11751329_s_at) / Fold change (ACY-1035/veh), FGFR1OP (ProbeSet 11751329_s_at) / Fold change (Aza/veh), VPS36 (ProbeSet 11739960_a_at) / Fold change (ACY-1035/veh), VPS36 (ProbeSet 11739960_a_at) / RFU SYPL1 (11715823_x_at) / Fold change /veh SYPL1 (11715823_x_at) / RFU IGFBP7 (11715501_s_at) / Fold change /veh IGFBP7 (11715501_s_at) / RFU REEP3 (11722064_at) / Fold change /veh REEP3 (11722064_at) / RFU IGLL1 (11728026_x_at) / Fold change /veh IGLL1 (11728026_x_at): dose or concentration left out as unconfirmed
Conditions: ProbeSet 11720154_at; LIST B

Compound: Nc1ncn([C@@H]2O[C@H](CO)[C@@H](O)[C@H]2O)c(=O)n1 [azacitidine]
- RFU, NRIP1: 462.80 RFU
